Experimental findings from article PMC4550851, “Potential analgesic effects of a novel N-acylethanolamine acid amidase inhibitor F96 through PPAR-α” (Scientific Reports, 2015) are described below.

Common to all, as to format: biochemical
In one experiment the target is T1, FAAH (Rattus norvegicus, UniProt P97612).
T1 construct: extracted recombinant rat FAAH (rFAAH)
T1 sequence (P97612 1-579): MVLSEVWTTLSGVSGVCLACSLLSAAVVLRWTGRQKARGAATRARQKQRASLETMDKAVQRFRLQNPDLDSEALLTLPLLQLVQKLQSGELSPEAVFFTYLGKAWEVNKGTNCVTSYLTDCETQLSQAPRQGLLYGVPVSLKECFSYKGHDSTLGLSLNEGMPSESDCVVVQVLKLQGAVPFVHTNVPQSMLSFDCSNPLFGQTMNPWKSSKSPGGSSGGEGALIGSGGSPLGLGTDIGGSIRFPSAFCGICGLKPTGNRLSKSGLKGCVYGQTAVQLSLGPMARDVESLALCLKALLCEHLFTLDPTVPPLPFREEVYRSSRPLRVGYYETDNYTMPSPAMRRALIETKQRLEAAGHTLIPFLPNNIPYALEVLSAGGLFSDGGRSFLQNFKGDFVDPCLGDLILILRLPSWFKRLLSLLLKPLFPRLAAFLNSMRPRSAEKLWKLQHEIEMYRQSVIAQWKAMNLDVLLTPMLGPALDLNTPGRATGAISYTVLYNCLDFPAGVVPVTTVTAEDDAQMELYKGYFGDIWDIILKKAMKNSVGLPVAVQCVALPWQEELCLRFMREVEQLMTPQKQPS
The experiment in a line: enzyme activity assay with extracted recombinant rFAAH, anandamide substrate (selectivity counter-assay).

The target in experiment [1] is T2, N-acylethanolamine acid amidase (NAAA) (Rattus norvegicus, UniProt Q5KTC7).
T2 construct: extracted recombinant rat NAAA (rNAAA)
T2 sequence (Q5KTC7 34-130): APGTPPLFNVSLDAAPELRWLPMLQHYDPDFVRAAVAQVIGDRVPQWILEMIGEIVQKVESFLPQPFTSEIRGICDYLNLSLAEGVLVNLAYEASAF
T2 sequence (Q5KTC7 131-362): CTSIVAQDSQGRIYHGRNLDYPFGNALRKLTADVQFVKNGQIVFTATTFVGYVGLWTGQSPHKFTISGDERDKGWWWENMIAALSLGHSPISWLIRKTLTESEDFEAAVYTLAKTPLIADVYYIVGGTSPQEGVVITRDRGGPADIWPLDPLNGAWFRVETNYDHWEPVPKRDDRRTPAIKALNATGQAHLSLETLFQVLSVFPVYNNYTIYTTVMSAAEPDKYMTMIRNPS
The experiment in a line: enzyme activity assay with extracted recombinant rNAAA, heptadecenoylethanolamide substrate, concentration-response.

The target in experiment [2] is T3, N-acylethanolamine acid amidase (NAAA) (Homo sapiens, UniProt Q02083).
T3 sequence (Q02083 29-125): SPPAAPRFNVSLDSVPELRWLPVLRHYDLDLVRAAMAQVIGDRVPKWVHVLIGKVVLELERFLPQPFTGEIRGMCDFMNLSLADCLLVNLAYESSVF
T3 sequence (Q02083 126-359): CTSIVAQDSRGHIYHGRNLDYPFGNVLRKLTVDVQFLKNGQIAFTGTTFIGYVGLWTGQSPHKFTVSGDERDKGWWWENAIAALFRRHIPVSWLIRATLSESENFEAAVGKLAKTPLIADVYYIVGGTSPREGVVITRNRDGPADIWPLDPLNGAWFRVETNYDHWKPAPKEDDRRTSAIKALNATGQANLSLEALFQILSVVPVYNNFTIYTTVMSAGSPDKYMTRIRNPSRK
The experiment in a line: enzyme activity assay, IC50.

Usually IC50 stands for the concentration needed to halve the response being measured. As for `O=C(CCCCCc1ccccc1)N1CCOC1=O` [F96, 3-(6-phenylhexanoyl)oxazolidin-2-one], the half-inhibitory concentration (IC50) came to 42000 ± 1920 nM at FAAH, 269 ± 22.4 nM in experiment [1] and 269 ± 43.8 nM in experiment [2].
